Source: ChEMBL document CHEMBL1134369, “Inhibition of heme detoxification processes underlies the antimalarial activity of terpene isonitrile compounds from marine sponges” (J Med Chem, 2001)

Tested on: Plasmodium falciparum
Assay: Antiplasmodial activity against Plasmodium falciparum D6
Format: functional, organism-based

Structure (SMILES)	IC50 [nM]
[C-]#[N+][C@@]1(C)CC[C@H]2[C@H]3[C@H]4[C@H](CC[C@@H]31)[C@H](C)C(C)=C[C@@H]4C[C@@H]2C	210
[C-]#[N+][C@]1(C)[C@H](C)C[C@@H]2C[C@H](C)[C@H]3CC[C@](C)(N=C=S)[C@H]4CC[C@H]1[C@@H]2[C@H]34	126
C=C[C@H]1C[C@H](C)[C@H]2CC[C@](C)(N=C=S)[C@H]3CCC(=C)[C@]1(O)[C@H]23	2310
[C-]#[N+][C@@]1(C)CC[C@H]2[C@@H]3[C@@H]1CC[C@@H](C)[C@]3(/C=C/C(=C)C)C[C@@H]2C	289
[C-]#[N+][C@@]1(C)CC[C@H]2[C@H]3[C@H]4C(=CC[C@@H]31)CC(C)(C)C[C@@H]4C[C@@H]2C	285
[C-]#[N+][C@]1(C)[C@H](C)C[C@@H]2C[C@H](C)[C@H]3CC[C@](C)([N+]#[C-])[C@H]4CC[C@H]1[C@@H]2[C@H]34 [DIISOCYANOADOCIANE]	14.5
[C-]#[N+][C@]1(C)[C@H](C)C[C@@H]2C[C@H](C)[C@H]3CC[C@](C)(N=C=O)[C@H]4CC[C@H]1[C@@H]2[C@H]34	220
[C-]#[N+][C@@]1(C)CC[C@H]2[C@H]3C(=C(C)CC[C@@H]31)[C@@H](C=C(C)C)C[C@@H]2C	197
[C-]#[N+][C@@]1(C)CC[C@H]2[C@H]3[C@@H](C(=C)CC[C@@H]31)[C@H](CC(=C)C)C[C@@H]2C	1750
CC(C)=CCC[C@@H](C)[C@H]1CC[C@](C)(N=C=S)[C@H]2CCC(C)=C[C@H]12	> 30200
[C-]#[N+][C@@]1(C)CC[C@H]2[C@H]3[C@H]4C(=CC(C)(C)C[C@@H]4C[C@@H]2C)CC[C@@H]31	249
[C-]#[N+][C@@]1(C)CC[C@H]2[C@H]3[C@@H](C(C)=CC[C@@H]31)[C@H](C=C(C)C)C[C@@H]2C	1020
[C-]#[N+][C@@]1(C)CC[C@H]2[C@H]3[C@@H]4[C@H](C[C@@H](C)[C@@](C)(N=C=O)[C@H]4CC[C@@H]31)C[C@@H]2C	9.4
[C-]#[N+][C@@]1(C)CC[C@H]2[C@H]3[C@@H](C(=C)CC[C@@H]31)[C@H](CC(C)(C)N=C=S)C[C@@H]2C	1320
[C-]#[N+][C@@]1(C)CC[C@H]2[C@H]3[C@@H](C(=C)CC[C@@H]31)[C@@H](C=C(C)C)C[C@@H]2C	47.4
